In PubChem BioAssay (NCI):
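Grown in 96-well plates, cells were treated for 48 hours with each compound at five concentrations. Insufficient inhibition: endpoint recorded as highest concentration tested. The concentration for 50% growth inhibition is given as GI50. TGI: total growth inhibition.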

Experiments:
Assay in all cases: NCI tumour cell line growth inhibition, 48 h
[1] = tested on: M14 melanoma
[2] = tested on: LOX IMVI melanoma
[3] = tested on: OVCAR-3 ovarian
[4] = tested on: NCI-H522 lung
[5] = tested on: HCT-116 colon
[6] = tested on: HL-60(TB) leukemia
[7] = tested on: MALME-3M melanoma
[8] = tested on: SK-OV-3 ovarian
[9] = tested on: MOLT-4 leukemia
[10] = tested on: SK-MEL-5 melanoma
[11] = tested on: OVCAR-8 ovarian
[12] = tested on: DU-145 prostate
[13] = tested on: CAKI-1 renal
[14] = tested on: K-562 leukemia
[15] = tested on: MDA-MB-435
[16] = tested on: UACC-62 melanoma
[17] = tested on: ACHN renal
[18] = tested on: HS 578T breast
[19] = tested on: SNB-19 CNS
[20] = tested on: OVCAR-4 ovarian
[21] = tested on: MCF7 breast
[22] = tested on: HOP-92 NSCLC
[23] = tested on: NCI/ADR-RES ovarian
[24] = tested on: NCI-H23 lung
[25] = tested on: PC-3 prostate
[26] = tested on: HCC-2998 colon
[27] = tested on: TK-10 renal
[28] = tested on: SN12C renal
[29] = tested on: EKVX NSCLC
[30] = tested on: NCI-H460 lung
[31] = tested on: UO-31 renal
[32] = tested on: MDA-MB-231 breast
[33] = tested on: UACC-257 melanoma
[34] = tested on: KM12 colon
[35] = tested on: HT29 colon
[36] = tested on: BT-549 breast
[37] = tested on: IGROV1 ovarian
[38] = tested on: CCRF-CEM leukemia
[39] = tested on: COLO 205 colon
[40] = tested on: NCI-H226 lung
[41] = tested on: HCT-15 colon
[42] = tested on: SF-295 CNS
[43] = tested on: SK-MEL-28 melanoma
[44] = tested on: SF-268 CNS
[45] = tested on: SF-539 CNS
[46] = tested on: OVCAR-5 ovarian
[47] = tested on: SNB-75 CNS
[48] = tested on: SK-MEL-2 melanoma
[49] = tested on: SW-620 colon
[50] = tested on: T-47D breast
[51] = tested on: HOP-62 NSCLC
[52] = tested on: A549 NSCLC
[53] = tested on: A498 renal
[54] = tested on: 786-0 renal
[55] = tested on: U251 CNS
[56] = tested on: RXF 393 renal
[57] = tested on: SR leukemia
[58] = tested on: RPMI-8226 leukemia

SMILES: CN1CCN(c2ccc(Nc3nc(NCCCNS(=O)(=O)c4cccc5ccccc45)c4sccc4n3)cc2)CC1
- GI50 [1]: 1.9 µM
- TGI [1]: 3.48 µM
- GI50 [2]: 1.66 µM
- TGI [2]: 3.05 µM
- GI50 [3]: 3.32 µM
- TGI [3]: 10.5 µM
- GI50 [4]: 1.81 µM
- TGI [4]: 3.92 µM
- GI50 [5]: 2.27 µM
- TGI [5]: 6.14 µM
- GI50 [6]: 2.06 µM
- TGI [6]: 4.74 µM
- GI50 [7]: 1.79 µM
- TGI [7]: 3.19 µM
- GI50 [8]: 20.8 µM
- TGI [8]: 39.5 µM
- GI50 [9]: 2.93 µM
- TGI [9]: 11.9 µM
- GI50 [10]: 1.78 µM
- TGI [10]: 3.19 µM
- GI50 [11]: 4.44 µM
- TGI [11]: 23.5 µM
- GI50 [12]: 6.23 µM
- TGI [12]: 20.5 µM
- GI50 [13]: 3.85 µM
- TGI [13]: 14.7 µM
- GI50 [14]: 3.1 µM
- TGI [14]: > 100 µM
- GI50 [15]: 1.76 µM
- TGI [15]: 3.21 µM
- GI50 [16]: 1.69 µM
- TGI [16]: 3.13 µM
- GI50 [17]: 3.39 µM
- TGI [17]: 10.6 µM
- GI50 [18]: 2.32 µM
- TGI [18]: 7.61 µM
- GI50 [19]: 5.75 µM
- TGI [19]: 18.3 µM
- GI50 [20]: 3.43 µM
- TGI [20]: 13 µM
- GI50 [21]: 2.2 µM
- TGI [21]: 5.25 µM
- GI50 [22]: 7.45 µM
- TGI [22]: 27.7 µM
- GI50 [23]: 5.29 µM
- TGI [23]: 19.8 µM
- GI50 [24]: 7.35 µM
- TGI [24]: 22.3 µM
- GI50 [25]: 5.69 µM
- TGI [25]: > 100 µM
- GI50 [26]: 1.97 µM
- TGI [26]: 4.37 µM
- GI50 [27]: 4.54 µM
- TGI [27]: 16.5 µM
- GI50 [28]: 6.48 µM
- TGI [28]: 19.7 µM
- GI50 [29]: 7.21 µM
- TGI [29]: 20.7 µM
- GI50 [30]: 3.44 µM
- TGI [30]: 10.6 µM
- GI50 [31]: 2.35 µM
- TGI [31]: 7.81 µM
- GI50 [32]: 2.08 µM
- TGI [32]: 4.06 µM
- GI50 [33]: 1.83 µM
- TGI [33]: 3.54 µM
- GI50 [34]: 4.67 µM
- TGI [34]: 22.7 µM
- GI50 [35]: 2.41 µM
- TGI [35]: 7.52 µM
- GI50 [36]: 5.23 µM
- TGI [36]: 21.4 µM
- GI50 [37]: 2.92 µM
- TGI [37]: 10.2 µM
- GI50 [38]: 3.35 µM
- TGI [38]: > 100 µM
- GI50 [39]: 2.12 µM
- TGI [39]: 4.31 µM
- GI50 [40]: 12.2 µM
- TGI [40]: 34.4 µM
- GI50 [41]: 1.78 µM
- TGI [41]: 3.53 µM
- GI50 [42]: 1.86 µM
- TGI [42]: 3.81 µM
- GI50 [43]: 1.73 µM
- TGI [43]: 3.22 µM
- GI50 [44]: 3.43 µM
- TGI [44]: 20.8 µM
- GI50 [45]: 1.72 µM
- TGI [45]: 3.11 µM
- GI50 [46]: 4.51 µM
- TGI [46]: 16.5 µM
- GI50 [47]: 12.7 µM
- TGI [47]: 25.4 µM
- GI50 [48]: 2.36 µM
- TGI [48]: 5.79 µM
- GI50 [49]: 2.02 µM
- TGI [49]: 4.04 µM
- GI50 [50]: 2.76 µM
- TGI [50]: 9 µM
- GI50 [51]: 15.3 µM
- TGI [51]: 32.4 µM
- GI50 [52]: 3.42 µM
- TGI [52]: 19.9 µM
- GI50 [53]: 2.86 µM
- TGI [53]: 9.4 µM
- GI50 [54]: 1.78 µM
- TGI [54]: 3.44 µM

SMILES: COc1cc(O)c2c(c1)[C@H]1O[C@@H]1C[C@H](O)[C@H](O)C(=O)/C=C\C[C@H](C)OC2=O
- GI50 [1]: 0.0483 µM
- TGI [1]: 6.84 µM
- GI50 [55]: 8.57 µM
- TGI [55]: > 33.3 µM
- GI50 [56]: 1.56 µM
- TGI [56]: 8.19 µM
- GI50 [2]: 1.25 µM
- TGI [2]: > 19.3 µM
- GI50 [3]: 2.49 µM
- TGI [3]: 16.5 µM
- GI50 [4]: 0.599 µM
- TGI [4]: 6.42 µM
- GI50 [5]: 0.779 µM
- TGI [5]: > 17.5 µM
- GI50 [6]: 0.197 µM
- TGI [6]: > 10.6 µM
- GI50 [7]: 0.00553 µM
- TGI [7]: 0.0231 µM
- GI50 [8]: 24 µM
- TGI [8]: > 33.3 µM
- GI50 [9]: 2.65 µM
- TGI [9]: > 33.3 µM
- GI50 [10]: 1.58 µM
- TGI [10]: 10.3 µM
- GI50 [11]: 6.08 µM
- TGI [11]: > 28.6 µM
- GI50 [12]: 3.53 µM
- TGI [12]: > 33.3 µM
- GI50 [14]: 2.09 µM
- TGI [14]: > 33.3 µM
- GI50 [15]: 0.298 µM
- TGI [15]: 7.15 µM
- GI50 [16]: 0.114 µM
- TGI [16]: 5.33 µM
- GI50 [17]: 2.14 µM
- TGI [17]: > 33.3 µM
- GI50 [18]: 5.92 µM
- TGI [18]: 27 µM
- GI50 [19]: 8.59 µM
- TGI [19]: > 33.3 µM
- GI50 [20]: 1.07 µM
- TGI [20]: > 33.3 µM
- GI50 [21]: 2.09 µM
- TGI [21]: > 33.3 µM
- GI50 [22]: 0.176 µM
- TGI [22]: 2.88 µM
- GI50 [23]: 8.56 µM
- TGI [23]: > 33.3 µM
- GI50 [24]: 1.95 µM
- TGI [24]: > 27.3 µM
- GI50 [25]: 11.5 µM
- TGI [25]: > 33.3 µM
- GI50 [26]: 4.85 µM
- TGI [26]: 19 µM
- GI50 [27]: 1.69 µM
- TGI [27]: 20.3 µM
- GI50 [28]: 5.25 µM
- TGI [28]: > 27.7 µM
- GI50 [29]: 3.88 µM
- TGI [29]: > 30.8 µM
- GI50 [30]: 4.96 µM
- TGI [30]: > 21.2 µM
- GI50 [31]: 0.561 µM
- TGI [31]: > 21.6 µM
- GI50 [32]: 2.05 µM
- TGI [32]: 16.2 µM
- GI50 [33]: 0.0584 µM
- TGI [33]: 0.525 µM
- GI50 [34]: 12.2 µM
- TGI [34]: > 33.3 µM
- GI50 [35]: 0.0883 µM
- TGI [35]: 13.4 µM
- GI50 [36]: 1.18 µM
- TGI [36]: 10.7 µM
- GI50 [37]: 1.27 µM
- TGI [37]: > 33.3 µM
- GI50 [38]: 1.54 µM
- TGI [38]: > 33.3 µM
- GI50 [39]: 0.0226 µM
- TGI [39]: 4.02 µM
- GI50 [40]: 3.71 µM
- TGI [40]: > 27.1 µM
- GI50 [41]: 1.81 µM
- TGI [41]: 23.4 µM
- GI50 [42]: 9.57 µM
- TGI [42]: > 33.3 µM
- GI50 [43]: 0.0445 µM
- TGI [43]: 2.32 µM
- GI50 [44]: 6.54 µM
- TGI [44]: > 28.5 µM
- GI50 [45]: 4.68 µM
- TGI [45]: 12.6 µM
- GI50 [46]: 3.98 µM
- TGI [46]: > 33.3 µM
- GI50 [47]: 6.11 µM
- TGI [47]: > 33.3 µM
- GI50 [48]: 1.68 µM
- TGI [48]: 10.5 µM
- GI50 [49]: 0.56 µM
- TGI [49]: 6.36 µM
- GI50 [50]: 0.774 µM
- TGI [50]: 18.3 µM
- GI50 [51]: 8.97 µM
- TGI [51]: > 29.7 µM
- GI50 [57]: 3.08 µM
- TGI [57]: > 30.6 µM
- GI50 [52]: 16.7 µM
- TGI [52]: > 33.3 µM
- GI50 [58]: 1.5 µM
- TGI [58]: 14.5 µM
- GI50 [53]: 1.93 µM
- TGI [53]: 9.51 µM
- GI50 [54]: 4.87 µM
- TGI [54]: 27.4 µM
